Experiments:
B16-F10 cells [1] = assay: Delivery of calcein to B16-F10 cells with or without electroporation, spectrofluorometric reading of cell lysate; assay type: cell-based, mouse
Description: The effects of salicylic acid (“SA”) on the delivery of calcein to B16-F10 cells using electroporation was studied. Three identical experiments were carried out. […] All cells were exposed to 120 μM calcein. In addition, cells in some samples were exposed to one of three different concentrations of salicyclic acid (1 mM, 5 mM, or 10 mM) with pH values of 6.70, 6.32, and 3.85, respectively. Pulses with one of four different field strengths were also applied (500, 750, 1000, or 1385 V/cm) to certain samples. Salicyclic acid concentration and field strength were experimental variables; however, some cells were not exposed to applied fields or salicyclic acid for comparison/control purposes.
Delivery of calcein using aspirin (acetylsalicylic acid or “ASA”) was studied. […] The same range of pulsing conditions was used and the variables were identical for the sample treatment.
Calcein delivery by electroporation using acetic acid (“AA”) as an effector was studied. The set of 3 replicate experiments included three concentrations of AA, each with a different pH (4.40, 5.36, or 6.42). The pH values of the three solutions of acetic acid were matched to those of ASA for the purpose of determining if AA is the derivative in ASA that enhances the delivery of calcein. The three concentrations of the AA solutions in PBS were similar, which was about 0.15%, and varied slightly in order to establish the desired pH value. In addition, one of three electric field strengths were applied to cells (500, 750. or 1000 V/cm). Some cells were not exposed to applied fields or any concentration of AA for purposes of comparison and control.
B16-F10 mouse melanoma cells (ATCC#:CRL-6475) were obtained and grown in McCoy's Media (Cellgro Mediatech, Inc., Herndon. VA), adjusted to contain 10% fetal bovine serum (Cellgro Mediatech, Inc.) and (25 mg) gentamicin 50 mg/mL (Mediatech, Inc.) and were incubated in 5% CO2 at 37° C. Serum was essential for many reasons. It provided hormonal factors that stimulated cell growth and function. It also contains essential proteins, amino acids, minerals, and lipids. Gentamicin is an antibiotic used as a preventative measure to help reduce microbial growth and contamination.
Cells were prepared for experiments by first harvesting by trypsinization and then washing 3 times by centrifugation. Cells were centrifuged (5810R, Eppendorf, Westbury, N.Y.) at 220× g for 5 minutes at 37° C. and resuspended in approximately 2.5 ml of PBS for each wash. A sample of cells was then diluted in 0.9% sodium chloride (APP, Schaumburg, Ill.) and 0.4% trypan blue stain (Cellgro Mediatech, Inc.). Trypan blue is an indicator in which the membranes of non-viable cells are penetrated and can be distinguished from the viable cells. Using a hemacytometer (Hausser Scientific, Horsham, Pa.), the viable and nonviable cells were counted. The number of cells per milliliter was computed by multiplying the number of cells counted per square millimeter×the dilution (when used)×10,000 (conversion factor).
Experiments were conducted using 48-well polystyrene tissue culture plates (BD Falcon. Franklin Lakes, N.J.). Each well held approximately 1.4 ml of liquid with a surface area of 0.75 cm^2. The depth and diameter of each well was 18 mm and 10 mm, respectively.
Under aseptic conditions, 150μl of the sterile gelatin solution was added to each well and let stand for 1 hour. The gelatin was then aspirated from each of the wells and air dried for 5 minutes. 500μl of McCoy's Media was added to the treated wells in addition to 7.5×10^4 viable cells and incubated at 37° C. for 18 hours before treatment.
The electrode shown in FIG. 2 was specially designed for all experimentation in these studies and was similar to the design mentioned above. The electrode consisted of 6 stainless steel electrodes, equally spaced at 60° intervals around a 0.7 cm diameter circle.

B16-F10 cells [2] = conditions: mouse, pH 4.4
Description: The trypan blue test was used to determine membrane integrity. Trypan blue dye will only penetrate into cells that have porous membranes. […] The protocol used was similar to the methods described for the delivery of calcein. After one hour of exposure at 37° the cells were washed three times with 500 μl aliquots of PBS. Liquid from the last wash was carefully aspirated, and then filled with 500μl of growth media.
For the purpose of this study, optimal testing conditions were used to treat B16-F10 cells to conclude the extent of reversible permeation.
Due to the large surface area of the wells, the cells were physically counted by observing 7 out of 21 fields of view along the horizontal diameter of each well at a magnification of 400× (see FIG. 5). The recovery of the membranes after exposure to each treating condition was expressed as a percentage of live cells remaining after each hour.
In order to distinguish the viable cells from the dead, a 0.4% trypan blue solution in PBS was used. 150 μl of the solution was added to each well for 1 minute, and then the cells were counted using the described method. Each test condition was studied at 1 hour intervals ranging from 1 hour to 4 hours. In addition, membrane recovery was examined 24 hours post treatment.

CC(=O)Oc1ccccc1C(=O)O [ASA, acetylsalicylic acid]
fluorescence magnitude compared to calcein alone (no ASA) (B16-F10 cells [1]; 1 mM or 5 mM ASA alone (pH 6.39, 5.40), no pulses): did not result in a significant increase
increase in fluorescence magnitude relative to calcein at same field (no ASA) (B16-F10 cells [1]; 10 mM ASA, 500 V/cm, p<0.0001): 3.7 fold
increase in fluorescence magnitude relative to calcein at same field (no ASA) (B16-F10 cells [1]; 10 mM ASA, 750 V/cm, p 0.0011): 3.82 fold
increase in fluorescence magnitude relative to calcein at same field (no ASA) (B16-F10 cells [1]; 10 mM ASA, 1000 V/cm, p 0.0014): 3.57 fold
increase in fluorescence magnitude relative to calcein at same field (no ASA) (B16-F10 cells [1]; 10 mM ASA, 1385 V/cm, p 0.0066): 3.18 fold
increase in internalized calcein vs control (calcein, no ASA or pulses) (B16-F10 cells [1]; 10 mM ASA, no pulses, p<0.0001): 5 fold
mean fluorescence magnitude compared to samples exposed to electric fields alone (no ASA) (B16-F10 cells [1]; 1 and 5 mM ASA, with electric fields): not significantly different
average fluorescent magnitude (B16-F10 cells [1]; calcein in 10 mM ASA (pH 4.40), no pulses): 4.28 (SEM=0.63)

CC(=O)O [AA, acetic acid]
fluorescence magnitude compared to samples not exposed to AA (B16-F10 cells [1]; AA about 0.15% in PBS, pH 5.36 or 6.42, with or without pulses): failed to show a significant increase
fluorescent data compared to AA alone (no pulses) (B16-F10 cells [1]; AA lowest pH solution (pH 4.40) in combination with electric fields): even higher
mean fluorescence magnitude (B16-F10 cells [1]; AA pH 4.40, 500 V/cm): 12.77
increase in fluorescence magnitude vs samples not exposed to AA at same field (B16-F10 cells [1]; AA pH 4.40, 500 V/cm, p<0.0001): 3 fold
increase in fluorescence magnitude vs samples not exposed to AA at same field (B16-F10 cells [1]; AA pH 4.40, 750 V/cm, p=0.0002): 2.25 fold
increase in fluorescence magnitude vs samples not exposed to AA at same field (B16-F10 cells [1]; AA pH 4.40, 1000 V/cm, p<0.0001): 3.5 fold
increase in mean fluorescence vs control (no AA or pulses) (B16-F10 cells [1]; AA pH 4.40 alone, no pulses): 8.2 fold
mean fluorescence magnitude (B16-F10 cells [1]; AA pH 4.40 alone, no pulses): 1.04
decline in the number of cells with intact membranes (B16-F10 cells [2]; 1 h): 17%
cells that excluded trypan blue dye (B16-F10 cells [2]; 24 h): 86%
cells with intact membranes (B16-F10 cells [2]; 24 h): 90%
average membrane integrity (B16-F10 cells [2]): 80-95%

O=C(O)c1ccccc1O [SA, salicylic acid]
calcein delivery compared to samples exposed to calcein alone (B16-F10 cells [1]; 1, 5 or 10 mM SA (pH 6.70, 6.32, 3.85), 120 μM calcein, no applied electric field): did not augment the delivery
fluorescent magnitude compared to samples treated with calcein and pulses (no salicylic acid) (B16-F10 cells [1]; 1, 5 or 10 mM SA, 120 μM calcein, electrical pulses 500-1385 V/cm): not significantly higher

Source: patent US20070122908A1, “Molecular Delivery to Cells Using Aspirin-Related Compounds” (UNIVERSITY OF SOUTH FLORIDA, priority 2005, published 2007)
